Results taken from patent publication US20200123208A1, “PEPTIDES AND NEMATICIDAL COMPOSITIONS” (priority 2017, published 2020).

Tests used:
Type in all cases: in vivo
[1] = tested on: Meloidogyne incognita J2s; experiment: Serotonin-induced stylet thrusting assay, M. incognita J2s; details: 100 μM uNLP, 24 h, 5 mM serotonin
Method: (§1) Predicted uNLPs from both M. incognita and G. pallida were synthesised by EZBiolab and dissolved into pH adjusted ddH2O to make a 5 mM stock which was aliquoted and stored at −20° C. J2s of both M. incognita and G. pallida were incubated for 24 hours in 200 μl of each peptide in a 24 well plate (SPL Lifesciences, South Korea) at a defined concentration.
Stylet thrusting assays where performed by incubating 100 M. incognita or G. pallida J2s for 15 minute in 5 mM or 2 mM serotonin (Sigma Aldrich, USA), respectively. J2s were placed on a glass slide and stylet thrusts were counted for randomly selected J2s, for 1 minute each. Counting took place for a maximum of 15 minutes. Longer incubations yielded inconsistent results. At least 30 J2s were counted for each neuropeptide treatment.

[2] = tested on: Globodera pallida infective stage juveniles (J2s); experiment: Chemosensory (chemotaxis) assay towards root exudate, G. pallida J2s; details: 100 μM uNLP, 24 h, mean+/-SEM
Method: as §1
A 60 mm Petri dish was divided into two segments, a positive and a negative side, with a 0.5 cm ‘dead zone’ either side of the centre point. The petri dish was filled with 15 ml of 0.25% w/v agar which was allowed to solidify. 3 ml of 0.25% w/v agar slurry in spring water (pH 7, agitated with a magnetic stirrer for several hours to give a smooth consistency) was added to the petri dish and spread evenly over the surface. Root diffusate (attractant) and water only (control) 0.25% agar plugs were embedded in the agar slurry, either side of the assay arena. Root diffusate was collected from 10 tomato plants, aged 3-6 weeks in 1 litre pots, by pouring 500 ml of ddH2O through the soil three times. Diffusate from each plant was combined, filter sterilised and stored at 4° C. for a maximum of 1 month. Root diffusate agar plugs were made by melting 1.25% agar in ddH2O, cooling to 50° C. before mixing with 4 parts of root diffusate. The agar was then allowed to solidify at room temperature. 100 uNLP pre-treated M. incognita or G. pallida J2s were added by pipette to the centre of the plate. J2s which moved out of the ‘dead zone’ after 3 hours were counted and their location (+/−) scored. The distribution of J2s were used to create a chemotaxis index for each plate, which formed one replicate, a total of 10 replicates where completed for each uNLP treatment.

Globodera pallida J2s = experiment: B. subtilis and C. reinhardtii plant protection assay, G. pallida; details: tomato
Method: Tomato seeds were sterilised with 2.5% NaOCl for 15 minutes, washed 5 times in ddH2O and germinated on 0.5% Murashige and Skoog plates at 23° C. […] Invasion assays were performed by mixing 500 pre-treated M. incognita or G. pallida J2s with agar slurry and a single tomato seedling (2 days post germination) in a 6 well plate. Assays were left at 23° C. for 24 hours in the case of M. incognita and at 18° C. for 24 hours in the case of G. pallida under a 16 hour light and 8 hour darkness cycle. Seedlings were stained using acid fuschin [69] and the number of nematodes within the roots counted.
B. subtilis were grown overnight in LB media containing ampicillin (100 μg/ml) at 37° C. with shaking, and harvested in the log phase of growth determined by measuring OD600nm. Five ml of culture at 0.5 OD was spun down and the pellet mixed with 3 ml of agar slurry and 500 J2s from either G. pallida or M. incognita. C. reinhardtii clones were grown at 23° C. with shaking, cultures in the log phase were measured at OD750 and 5 ml of culture at 0.5 OD was pelleted by centrifugation. C. reinhardtii pellets were mixed with 3 ml of agar slurry and 500 J2s from either G. pallida or M. incognita. Plant invasion assays were performed as described above. […]

[3] = tested on: mixed-stage Caenorhabditis elegans; experiment: C. elegans chemotaxis assay (non-target nematode); details: 100 μM, 24 h, no statistically significant impact
Method: C. elegans wild-type N2 Bristol strain were obtained from the C. elegans Genomics Center and maintained on a Escherichia coli (strain OP50) lawn on nematode growth medium (NGM) agar plates (3 g/l NaCl, 17 g/l agar, 2.5 g/l peptone, 5 mg/l cholesterol, 25 mM KH2PO4 (pH 6.0), 1 mM CaCl2, 1 mM MgSO4) at 20° C.. Chemotaxis assays were performed in a 9 cm diameter Petri dish on NGM agar which was split into a positive and negative side with a central ‘dead zone’ of 1.5 cm diameter. 100 mixed-staged C. elegans were washed three times in M9 buffer and soaked in 100 μM PPN uNLP, or M9 vehicle control for 24 hours. 2 μl of 50 mM sodium acetate, 0.5% pyrazine, 0.5% benzaldehyde or 0.5% diacetyl was spotted onto the positive side, 2 μl of ddH2O was spotted onto the negative side. Pyrazine, benzaldehyde and diacetyl volatile attractants were assayed immediately whereas the water soluble sodium acetate was assayed 18 hours following addition to the plate. Assays were maintained in the dark at 20° C., and counted after 1 hour.

Sequence: SFDSFTGPGFTGLD [Mi-NLP-15b]
- rate of serotonergic-induced stylet thrusting compared with controls [1]: 129.9%+/−10.59
- chemotaxis index (Cl) towards root exudate [2]: −0.04762+/−0.1983
- G. pallida invasion relative to control groups (Globodera pallida J2s; B. subtilis secreting the uNLP): 51.98%+/−13.29
- G. pallida invasion relative to controls (Globodera pallida J2s; C. reinhardtii expressing the uNLP): 30.95%+/−9.021
- chemotaxis index (Cl) towards sodium acetate ([3]; control 0.4269): 0.3142+/−0.039
- chemotaxis index (Cl) towards pyrazine ([3]; control 0.4904): 0.4959+/−0.089
- chemotaxis index (Cl) towards diacetyl ([3]; control 0.6638): 0.6640+/−0.126
- chemotaxis index (Cl) towards benzaldehyde ([3]; control 0.7026): 0.7032+/−0.075
